Data: patent US20250041294A1, “Synergistic compositions for use in the treatment of cancer” (Sartar Therapeutics Oy, priority 2021, published 2025)
Where two headings read alike, the source gives them in different places.

Key:
Format in all cases: cell-based
[1] = system: GOT3 cell line; assay: High throughput drug sensitivity and resistance test (CellTiter-Glo, 72 hours); details: for GOT3 cell line: DSS(combo (BAY2666605))-DSS(drug): drug combined with BAY2666605 (40 nM) minus drug alone
Procedure: (§1) Cell lines. PDE3A-positive (GIST882, SA4, and GOT3) and PDE3A-negative cell lines (93TT449, 94T778, LPS141, MLS17656-92, MLS402-91, and SW872) were cultured in RPMI Medium 1640 (Gibco) with 5-, 10- or 20% fetal bovine serum (FBS, gibco), 100 U/mL of penicillin, 100 […] and 0.03 mg/mL of L-glutamine (Pen Strep Glut, Gibco, 10378-016) in a humidified, 5% CO2 atmosphere at 37° C.
(§2) High throughput drug sensitivity and resistance test. A sensitivity and resistance of cancer cell lines to 528 compounds were investigated in 9 cell lines (GIST882, SA4, GOT3, 93TT449, 94T778, LPS141, MLS17656-92, MLS402-91, and SW872). In addition, same compounds were investigated together with anagrelide hydrochloride (100 nM) treatment in the PDE3A low expressing cell lines SA4 and GOT3, and with BAY2666605 (40 nM) in all PDE3A-positive cell lines GIST882, SA4 and GOT3. The compounds were dissolved in 100% dimethyl sulfoxide or water and plated in 10-fold dilutions covering a 10,000-fold concentration range on flat clear bottom 384-well microplates as described in detail earlier (Pulkka O P, et al 2019). A cell viability was measured after 72 hours using CellTiter-Glo Cell Viability assay (Promega Inc.) and PHERAstar FS plate reader (BMG Labtech). The data were normalized to negative (0.01% dimethyl sulfoxide only) and positive (100 μmol/L benzethonium chloride) controls.
(§3) A four-parameter logistic dose-response curves were estimated by using the Marquardt-Levenberg algorithm and Breeze analysis platform. Drug responses to the test compounds were measured using the drug sensitivity score (DSS). Drug synergy partners, which were common in investigated cell lines were identified as following: DSS value of a single agent was subtracted from the DSS value of anagrelide-drug combination in single cell lines. […] The analysis was repeated by using BAY2666605 as a PDE3A modulator.

[2] = system: SA4 cell line; assay: as above; details: for SA4 cell line: DSS(combo (BAY2666605))-DSS(drug): drug combined with BAY2666605 (40 nM) minus drug alone
Procedure: as §1, §2, §3

[3] = system: GIST882, GOT3 and SA4 cell lines; assay: High throughput drug sensitivity and resistance test, average over cell lines (BAY2666605 combination); details: for Average DSS (aDSS): BAY2666605 combination, average of GIST882, SA4 and GOT3, aDSS higher than 3.0 = synergy
Procedure: as §1, §2, §3

[4] = system: GIST882 cell line; assay: High throughput drug sensitivity and resistance test (CellTiter-Glo, 72 hours); details: drug combined with BAY2666605 (40 nM) minus drug alone
Procedure: High throughput drug sensitivity and resistance test. […] In addition, same compounds were investigated together with anagrelide hydrochloride (100 nM) treatment in the PDE3A low expressing cell lines SA4 and GOT3, and with BAY2666605 (40 nM) in all PDE3A-positive cell lines GIST882, SA4 and GOT3. […] A cell viability was measured after 72 hours using CellTiter-Glo Cell Viability assay (Promega Inc.) and PHERAstar FS plate reader (BMG Labtech). The data were normalized to negative (0.01% dimethyl sulfoxide only) and positive (100 μmol/L benzethonium chloride) controls.
as §3

[5] = system: GOT3 and SA4 cell lines; assay: High throughput drug sensitivity and resistance test, average over cell lines (anagrelide combination)
Procedure: as §1, §2, §3

[6] = with anagrelide (GOT3, SA4) or BAY2666605 (GIST882, GOT3, SA4)
[7] = drug combined with anagrelide hydrochloride (100 nM) minus drug alone, GOT3
[8] = drug combined with anagrelide hydrochloride (100 nM) minus drug alone, SA4
[9] = anagrelide combination, average of SA4 and GOT3, aDSS higher than 3.0 = synergy

Compound: CO[C@@H](C)Cn1c(=O)n(C)c2cnc3ccc(-c4cncc(C(C)(C)O)c4)cc3c21 [LY3023414]
- GOT3 cell line: DSS(combo (BAY2666605))-DSS(drug) ([1]; GOT3): 1.5
- SA4 cell line: DSS(combo (BAY2666605))-DSS(drug) ([2]; SA4): 9.3
- Average DSS (aDSS) [3]: 4.4
- synergy in high-throughput screening (in words) [3, 6]: synergistic
- GIST882 cell line: DSS(combo (BAY2666605))-DSS(drug) [4]: 2.4

Compound: COc1ccc(-c2nc(N3CCOCC3)c3sc(CN(C)c4ncc(C(=O)NO)cn4)cc3n2)cn1 [CUDC-907]
- GOT3 cell line: DSS(combo (anagrelide))-DSS(drug) [1, 7]: 0
- SA4 cell line: DSS(combo (anagrelide))-DSS(drug) [2, 8]: 10.8
- synergy in high-throughput screening (in words) [3, 6]: synergistic
- Average DSS (aDSS) [5, 9]: 5.4

Compound: CN(C)C[C@@H]1CCn2cc(c3ccccc32)C2=C(C(=O)NC2=O)c2cn(c3ccccc23)CCO1 [Ruboxistaurin]
- GOT3 cell line: DSS(combo (anagrelide))-DSS(drug) [1, 7]: 1.8
- SA4 cell line: DSS(combo (anagrelide))-DSS(drug) [2, 8]: 4.8
- synergy in high-throughput screening (in words) [3, 6]: synergistic
- Average DSS (aDSS) [5, 9]: 3.3

Compound: COc1ccc(C[C@H](NC(=O)[C@H](C)NC(=O)CN2CCOCC2)C(=O)N[C@@H](Cc2ccccc2)C(=O)C2(C)CO2)cc1 (stereo in doubt) [ONX-0914]
- GOT3 cell line: DSS(combo (BAY2666605))-DSS(drug) ([1]; GOT3): 0.9
- SA4 cell line: DSS(combo (BAY2666605))-DSS(drug) ([2]; SA4): 4.6
- Average DSS (aDSS) [3]: 4.6
- synergy in high-throughput screening (in words) [3, 6]: synergistic
- GIST882 cell line: DSS(combo (BAY2666605))-DSS(drug) [4]: 8.4

Compound: CC1(C)OCCn2c1nc1c(N3CCOCC3)nc(-c3cnc(N)nc3)nc12 [GDC-0084]
- GOT3 cell line: DSS(combo (anagrelide))-DSS(drug) [1, 7]: 2.3
- SA4 cell line: DSS(combo (anagrelide))-DSS(drug) [2, 8]: 3.9
- synergy in high-throughput screening (in words) [3, 6]: synergistic
- Average DSS (aDSS) [5, 9]: 3.1

Compound: CO[C@@H]1[C@H](N(C)C(=O)c2ccccc2)C[C@H]2O[C@]1(C)n1c3ccccc3c3c4c(c5c6ccccc6n2c5c31)C(=O)NC4 [Midostaurin, midostaurin]
- GOT3 cell line: DSS(combo (anagrelide))-DSS(drug) [1, 7]: 2.3
- SA4 cell line: DSS(combo (anagrelide))-DSS(drug) [2, 8]: 5.1
- Average DSS (aDSS) [5, 9]: 3.7

Compound: CC(C)(C)C[C@@H]1N[C@@H](C(=O)N[C@H]2CC[C@H](O)CC2)[C@H](c2cccc(Cl)c2F)[C@]12C(=O)Nc1cc(Cl)ccc12 [SAR405838]
- GOT3 cell line: DSS(combo (anagrelide))-DSS(drug) [1, 7]: 0.1
- SA4 cell line: DSS(combo (anagrelide))-DSS(drug) [2, 8]: 7.8
- synergy in high-throughput screening (in words) [3, 6]: synergistic
- Average DSS (aDSS) [5, 9]: 3.95

Compound: COc1ccc(-c2ccc3c(N4CCOC[C@@H]4C)nc(N4CCOC[C@@H]4C)nc3n2)cc1CO [AZD8055]
- GOT3 cell line: DSS(combo (anagrelide))-DSS(drug) [1, 7]: 1.5
- SA4 cell line: DSS(combo (anagrelide))-DSS(drug) [2, 8]: 5.9
- synergy in high-throughput screening (in words) [3, 6]: synergistic
- Average DSS (aDSS) [5, 9]: 3.7

Compound: Cn1cc(-c2cnn3c(N)c(Br)c([C@@H]4CCCNC4)nc23)cn1 [MK-8776]
- GOT3 cell line: DSS(combo (anagrelide))-DSS(drug) [1]: 1.6
- SA4 cell line: DSS(combo (anagrelide))-DSS(drug) [2]: 4.8
- synergy in high-throughput screening (in words) [3]: synergistic
- Average DSS (aDSS) [5]: 3.2

Compound: Cn1ncc(Cl)c1-c1cc(C(=O)N[C@H](CN)Cc2ccc(F)c(F)c2)oc1Cl [Uprosertib, uprosertib]
- GOT3 cell line: DSS(combo (anagrelide))-DSS(drug) [1, 7]: 1.8
- SA4 cell line: DSS(combo (anagrelide))-DSS(drug) [2, 8]: 5.4
- synergy in high-throughput screening (in words) [3, 6]: synergistic
- Average DSS (aDSS) [5, 9]: 3.6

Compound: CO[C@H]1CC[C@H](N2C(=O)CNc3ncc(-c4ccc(C(C)(C)O)nc4)nc32)CC1 [CC-223]
- GOT3 cell line: DSS(combo (anagrelide))-DSS(drug) [1, 7]: 0.8
- SA4 cell line: DSS(combo (anagrelide))-DSS(drug) [2, 8]: 5.6
- synergy in high-throughput screening (in words) [3, 6]: synergistic
- Average DSS (aDSS) [5, 9]: 3.2

Compound: Nc1nccc(-c2c(-c3ccc(F)cc3)ncn2C2CCCCC2)n1 [PF-670462]
- GOT3 cell line: DSS(combo (anagrelide))-DSS(drug) [1, 7]: 0.2
- SA4 cell line: DSS(combo (anagrelide))-DSS(drug) [2, 8]: 7.1
- synergy in high-throughput screening (in words) [3, 6]: synergistic
- Average DSS (aDSS) [5, 9]: 3.65

Compound: CC(C)[C@H](C(=O)Nc1ccc(C(=O)NO)cc1)c1ccccc1 [AR-42]
- GOT3 cell line: DSS(combo (anagrelide))-DSS(drug) [1, 7]: −0.8
- SA4 cell line: DSS(combo (anagrelide))-DSS(drug) [2, 8]: 12.9
- synergy in high-throughput screening (in words) [3, 6]: synergistic
- Average DSS (aDSS) [5, 9]: 6.05

Compound: CNC(=O)c1nn(C)c2c1C(C)(C)Cc1cnc(Nc3ccc(N4CCN(C)CC4)cc3)nc1-2 [Milciclib, milciclib]
- GOT3 cell line: DSS(combo (anagrelide))-DSS(drug) [1, 7]: 3.6
- SA4 cell line: DSS(combo (anagrelide))-DSS(drug) [2, 8]: 3.9
- synergy in high-throughput screening (in words) [3, 6]: synergistic
- Average DSS (aDSS) [5, 9]: 3.75

Compound: N[C@@H]1CCCN(c2c(/C=C3\SC(=O)NC3=O)cccc2-c2ccccc2)C1 [AZD1208]
- GOT3 cell line: DSS(combo (anagrelide))-DSS(drug) [1, 7]: 0.3
- SA4 cell line: DSS(combo (anagrelide))-DSS(drug) [2, 8]: 7.1
- synergy in high-throughput screening (in words) [3, 6]: synergistic
- Average DSS (aDSS) [5, 9]: 3.7

Compound: CC(C)[C@@H](CS(=O)(=O)C(C)C)N1C(=O)[C@@](C)(CC(=O)O)C[C@H](c2cccc(Cl)c2)[C@H]1c1ccc(Cl)cc1 [AMG-232]
- GOT3 cell line: DSS(combo (anagrelide))-DSS(drug) [1, 7]: 0
- SA4 cell line: DSS(combo (anagrelide))-DSS(drug) [2, 8]: 6.2
- synergy in high-throughput screening (in words) [3, 6]: synergistic
- Average DSS (aDSS) [5, 9]: 3.1

Compound: CCN(CCO)CCCOc1ccc2c(Nc3cc(CC(=O)Nc4cccc(F)c4)[nH]n3)ncnc2c1 [AZD1152-HQPA]
- GOT3 cell line: DSS(combo (anagrelide))-DSS(drug) [1, 7]: 3.4
- SA4 cell line: DSS(combo (anagrelide))-DSS(drug) [2, 8]: 5.9
- synergy in high-throughput screening (in words) [3, 6]: synergistic
- Average DSS (aDSS) [5, 9]: 4.65

Compound: CC(C)Oc1ccc(C(=O)N[C@H](CNC(=O)CN(C)C)Cc2ccc(-c3cn4cccc([C@H](C)O)c4n3)cc2)cc1Cl [GSK923295]
- GOT3 cell line: DSS(combo (anagrelide))-DSS(drug) [1, 7]: 2.8
- SA4 cell line: DSS(combo (anagrelide))-DSS(drug) [2, 8]: 3.9
- synergy in high-throughput screening (in words) [3, 6]: synergistic
- Average DSS (aDSS) [5, 9]: 3.35

Compound: CNC(=O)c1ccccc1Nc1cc(Nc2ccc(N3CCOCC3)cc2OC)ncc1C(F)(F)F [VS-4718]
- GOT3 cell line: DSS(combo (anagrelide))-DSS(drug) [1, 7]: 3.8
- SA4 cell line: DSS(combo (anagrelide))-DSS(drug) [2, 8]: 5.3
- synergy in high-throughput screening (in words) [3, 6]: synergistic
- Average DSS (aDSS) [5, 9]: 4.55

Compound: C/C=C1\NC(=O)[C@H]2CSSCC/C=C/[C@H](CC(=O)N[C@H](C(C)C)C(=O)N2)OC(=O)[C@H](C(C)C)NC1=O [Romidepsin, romidepsin]
- GOT3 cell line: DSS(combo (anagrelide))-DSS(drug) [1, 7]: 1.4
- SA4 cell line: DSS(combo (anagrelide))-DSS(drug) [2, 8]: 6.3

Compound: Nc1nc2cc(-c3ccc4ncc(C(=O)N5CCOCC5)n4c3)ccc2o1 [Serabelisib, serabelisib]
- GOT3 cell line: DSS(combo (anagrelide))-DSS(drug) [1, 7]: 1.9
- SA4 cell line: DSS(combo (anagrelide))-DSS(drug) [2, 8]: 5.8
- synergy in high-throughput screening (in words) [3, 6]: synergistic
- Average DSS (aDSS) [5, 9]: 3.85

Compound: O=C1CN2Cc3c(ccc(Cl)c3Cl)N=C2N1 [Anagrelide, anagrelide]
- DSS (drug sensitivity score) ([1]; Anagrelide alone, GOT3): 9.2
- IC50 ([1]; Anagrelide alone, GOT3, cell viability 72 hours): 0.0843 µM
- DSS (drug sensitivity score) ([2]; Anagrelide alone, SA4): 15.4
- IC50 ([2]; Anagrelide alone, SA4, cell viability 72 hours): 0.0735 µM
